The assay relates to 171881-019-R-J1-PDC tumor spheroid viability. Kind of assay: Anticancer human tumor 171881-019-R-J1-PDC patient-derived invasive breast carcinoma cell line growth inhibition [PI3K]. The following applies: spheroids with HUVEC and MSC; for viability, T/C: stronger effect = lower value. An excerpt:
Combinatorial screen of targeted agents with the PI3K inhibitors inavolisib, alpelisib, duvelisib, and copanlisib in multi-cell type tumor spheroids
A high-throughput screen of multi-cell type tumor spheroids was designed to identify active combinations of targeted small molecules and PI3K pathway inhibitors. Complex spheroids include a stromal component modeled by human endothelial cells (HUVEC) and fibroblasts modeled by human mesenchymal stem cells (MSCs). The concentration ranges selected for each drug and investigational agent were based upon clinically achievable concentrations if the clinical Cmax of the agent was known.
Compounds. The drugs and investigational agents: inavolisib (NSC800729), alpelisib (NSC765974), duvelisib (NSC772469), copanlisib (NSC816437), ipatasertib (NSC767898), afuresertib (NSC778305), talazoparib (NSC767125), sapanisertib (NSC764658), selumetinib (NSC741078), tovorafenib (DAY101, NSC766906), vemurafenib (NSC761431), ravoxertinib (NSC781343), sotorasib (NSC818433), MRTX1133 (NSC 836407), abemaciclib (NSC 768073), palbociclib (NSC758247), venetoclax (NSC 766270), SY5609 (NSC837396), enzalutamide (NSC755605), and darolutamide (NSC825331), were obtained from the National Cancer Institute (NCI) Developmental Therapeutics Program Chemical Repository. The FDA-approved anticancer drug set is available from the NCI Developmental Therapeutics Program. […] The stock solutions were prepared in dimethyl sulfoxide (DMSO, Sigma-Aldrich, St. Louis, MO, cat. D2650) at 800-fold the tested concentration and stored at -70 degrees C prior to their use. All drugs and investigational agents were tested over a range starting from a high concentration at or near the clinical Cmax and decreasing in half-log increments. If the clinical Cmax for an agent had not been determined, the highest concentration tested was 10 microM.
Cell Culture. All cells were maintained in an incubator at 37 degrees C and 5% CO2 with 95% humidity. The PDC lines were cultured according to standard operating procedures established by the NCI PDMR (https://pdmr.cancer.gov/sops/default.htm). All PDCs were thawed and cultured in Matrigel-coated flasks prepared with a working solution of 1X Ham's F-12 nutrient mix, without supplementation (Invitrogen, Waltham, MA, cat. 11765054), 100 U/mL penicillin-streptomycin (Invitrogen, cat. 15140122), and 2.5% Matrigel (Corning Inc., Corning, NY, cat. 354248) for the first three passages. The 354836-022-R-J1-PDC, 475296-252-R-J1-PDC, and 997726-040-R-J2-PDC lines were cultured in 6A media, which includes advanced DMEM/F-12 (Thermo Fisher Scientific, cat. 12634028), 10 mM HEPES (Thermo Fisher Scientific, cat. 15630080), 1X GlutaMAX supplement (Thermo Fisher Scientific, cat. 35050061), 0.1 mg/mL primocin (InvivoGen, San Diego, CA, cat. ant-pm-2), 10% defined fetal bovine serum, heat inactivated (HyClone Laboratories Inc., Logan, UT, cat. SH30070.03HI), 50% L-WRN conditioned media (ATCC, cat. CRL-3276), 1.25 mM N-Acetyl-L-cysteine (Sigma-Aldrich, cat. A9165), 10 mM nicotinamide (Sigma-Aldrich, cat. N0636), 1X B-27 supplement (Thermo Fisher Scientific, cat. 17504044), 1X N-2 supplement (Thermo Fisher Scientific, cat. 17502048), and 10 microM Y-27632 dihydrochloride (Tocris Bioscience, Bristol, United Kingdom, cat. 1254). The 624824-186-R-J2-PDC line was cultured in 6C/Colon 1B media, which includes all 6A media components plus 50 ng/mL human EGF recombinant protein (Thermo Fisher Scientific, cat. PHG0311). […]

A value given as a limit tells only on which side of the number the result lay.

This is an account of results in PubChem BioAssay AID1963986 (Molecular Pharmacology Branch, DTP, NCI, 2024).
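Further: spheroids exposed to compound for 7 days before viability read.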

With `C[C@@H](NC(=O)c1ncnc(N)c1Cl)c1ncc(C(=O)Nc2cc(C(F)(F)F)c(Cl)cn2)s1`, the viability, T/C (as a rule, the result in the treated group divided by that in the control group, in per cent) was 91.1% [middle of 4 runs] (compound 0.0316 µM); 89.8% [middle of 4 runs] (compound 0.1 µM); 90.8% [middle of 4 runs] (compound 0.316 µM); 83.6% [middle of 4 runs] (compound 1 µM); 72.5% [middle of 4 runs] (compound 3.16 µM); 49.5% [middle of 4 runs] (compound 10 µM).

Regarding `Cn1ncnc1[C@H]1c2n[nH]c(=O)c3cc(F)cc(c23)N[C@@H]1c1ccc(F)cc1`, the viability, T/C reads like this: (compound 0.000316 µM) 92.5% [middle of 4 runs]; (compound 0.001 µM) 93.2% [middle of 4 runs]; (compound 0.00316 µM) 97.5% [middle of 4 runs]; (compound 0.01 µM) 98.2% [middle of 4 runs]; (compound 0.0316 µM) 97.7% [middle of 4 runs]; (compound 0.1 µM) 87% [middle of 4 runs]. For the same molecule, under “curve of compound”, the IC50 (as a rule, the concentration that inhibits the measured activity by half) is above 100 nM.

For `CNC(=O)c1ccc(N2C(=S)N(c3ccc(C#N)c(C(F)(F)F)c3)C(=O)C2(C)C)cc1F`, the viability, T/C runs as follows: (compound 0.0316 µM) 96.3% [middle of 4 runs]; (compound 0.1 µM) 87.5% [middle of 4 runs]; (compound 1 µM) 90.5% [middle of 4 runs]; (compound 3.16 µM) 82.8% [middle of 4 runs]; (compound 10 µM) 72% [middle of 4 runs]. In addition, for the setting “curve of compound”, the half-inhibitory concentration (IC50) is above 10000 nM.

As for `C#Cc1c(F)ccc2cc(O)cc(-c3ncc4c(N5CC6CCC(C5)N6)nc(OCC56CCCN5CC(F)C6)nc4c3F)c12` (stereo unspecified) + CC(Nc1ncnc2nc[nH]c12)c1cc2cccc(Cl)c2c(=O)n1-c1ccccc1, the half-maximal inhibitory concentration (IC50) reads like this: (curve of first compound, second compound 0.0316 µM) 562 nM; (curve of first compound, second compound 0.1 µM) 655 nM; (curve of first compound, second compound 0.316 µM) 440 nM; (curve of first compound, second compound 1 µM) 314 nM; (curve of first compound, second compound 3.16 µM) 108 nM; (curve of first compound, second compound 10 µM) below 31.6 nM. Besides, the viability, T/C (second compound 0.0316 µM, first compound 0.0316 µM) was 89.6%; the viability, T/C (second compound 0.0316 µM, first compound 0.1 µM) was 78.5%; the viability, T/C (second compound 0.0316 µM, first compound 0.316 µM) was 54%; the viability, T/C (second compound 0.0316 µM, first compound 1 µM) was 44.5%; the viability, T/C (second compound 0.0316 µM, first compound 3.16 µM) was 35.7%; the viability, T/C (second compound 0.0316 µM, first compound 10 µM) was 29.4%. Besides, the viability, T/C was 78.6% (second compound 0.1 µM, first compound 0.0316 µM); 80.1% (second compound 0.1 µM, first compound 0.1 µM); 57% (second compound 0.1 µM, first compound 0.316 µM); 43.9% (second compound 0.1 µM, first compound 1 µM); 34.7% (second compound 0.1 µM, first compound 3.16 µM); 24.3% (second compound 0.1 µM, first compound 10 µM). The viability, T/C (second compound 0.316 µM, first compound 0.0316 µM) was 83.3%; the viability, T/C (second compound 0.316 µM, first compound 0.1 µM) is 71%; the viability, T/C (second compound 0.316 µM, first compound 0.316 µM) was 51.6%; the viability, T/C (second compound 0.316 µM, first compound 1 µM) was 41.8%; the viability, T/C (second compound 0.316 µM, first compound 3.16 µM) is 29.7%; the viability, T/C (second compound 0.316 µM, first compound 10 µM) is 23.2%. Further, the viability, T/C was 76% (second compound 1 µM, first compound 0.0316 µM); 68.8% (second compound 1 µM, first compound 0.1 µM); 47.9% (second compound 1 µM, first compound 0.316 µM); 34.3% (second compound 1 µM, first compound 1 µM); 26.6% (second compound 1 µM, first compound 3.16 µM); 19.7% (second compound 1 µM, first compound 10 µM). For the same molecule, the viability, T/C (second compound 3.16 µM, first compound 0.0316 µM) is 72.2%; the viability, T/C (second compound 3.16 µM, first compound 0.1 µM) is 50.1%; the viability, T/C (second compound 3.16 µM, first compound 0.316 µM) was 37.1%; the viability, T/C (second compound 3.16 µM, first compound 1 µM) was 23.9%; the viability, T/C (second compound 3.16 µM, first compound 3.16 µM) was 18.2%; the viability, T/C (second compound 3.16 µM, first compound 10 µM) was 13.4%. Also, the viability, T/C was 49.8% (second compound 10 µM, first compound 0.0316 µM); 32.6% (second compound 10 µM, first compound 0.1 µM); 21.5% (second compound 10 µM, first compound 0.316 µM); 16.9% (second compound 10 µM, first compound 1 µM); 10.3% (second compound 10 µM, first compound 3.16 µM); 6.78% (second compound 10 µM, first compound 10 µM).
